According to patent US12606739B2, “Luminescent compound, method for producing luminescent compound, luminescent composition, luminescent thin film and luminescent particles” (KONICA MINOLTA, INC., priority 2020, dated 2026):

Assay: Luminescence quantum yield of luminescent particles (melamine resin particles, aqueous dispersion)
Format: physicochemical
Settings: luminescent particle, concentration of the dye in the particle 20%, absolute fluorescence quantum yield
Procedure: The synthesized luminescent compound (Exemplary Compound 1-1) according to one or more embodiments of the present invention was added to 22 mL of water and dissolved. Thereafter, 2 mL of a 5% aqueous solution of Emulsion® 430 (polyoxyethyleneoleyl ether, manufactured by Kao Corporation), an emulsifier for emulsion polymerization, was added to the solution. After the solution was heated to 70° C. with stirring on a hot stirrer, 0.65 g of NIKALAC MX-035 (manufactured by Nippon Carbide Industries Co., Inc.), a melamine resin raw material, was added thereto. […]
Specifically, centrifugation was performed for 15 minutes at 20000 G using a centrifuge (Micro Refrigerated Centrifuge Model 3740 manufactured by Kubota Corporation), the supernatant was removed, ultrapure water was added thereto, ultrasonic irradiation was performed, and redispersion was performed. […] The absolute fluorescence quantum yield of the obtained aqueous dispersion of the fluorescent particles was measured using the fluorescence quantum yield measuring device (C11347-01, manufactured by Hamamatsu Photonics K.K), and this was taken as the luminescence quantum yield of the luminescent particles.
With respect to the above-described Comparative Compound 1 and Comparative Compound 2, preparation of luminescent particles and measurement of the luminescence quantum yield were performed in the same manner. […]

| Compound | Luminescence Quantum Yield [%] |
| --- | --- |
| CC(C)c1cccc(C(C)C)c1N1C(=O)c2cc(Oc3ccc(S(=O)(=O)O)cc3-c3ccccc3)c3c4c(Oc5ccc(S(=O)(=O)O)cc5-c5ccccc5)cc5c6c(cc(Oc7ccc(S(=O)(=O)O)cc7-c7ccccc7)c(c7c(Oc8ccc(S(=O)(=O)O)cc8-c8ccccc8)cc(c2c37)C1=O)c64)C(=O)N(c1c(C(C)C)cccc1C(C)C)C5=O [Comparative Compound 2] | 9 |
| CC(C)c1cccc(C(C)C)c1N1C(=O)c2cc(Oc3ccc(S(=O)(=O)O)cc3)c3c4c(Oc5ccc(S(=O)(=O)O)cc5)cc5c6c(cc(Oc7ccc(S(=O)(=O)O)cc7)c(c7c(Oc8ccc(S(=O)(=O)O)cc8)cc(c2c37)C1=O)c64)C(=O)N(c1c(C(C)C)cccc1C(C)C)C5=O [Comparative Compound 1] | 10 |
